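Each compound was tested at five concentrations against cells in 96-well plates for 48 hours. GI50 marks 50% less growth.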 Activity calls are given as the source filed them. No stated cut-off is given here; in the data, active = GI50 up to about 1.1 µM and inactive = higher.
What was measured:
Assay in all cases: DTP human tumour cell line panel, 48 h
A498 = tested on: A498
UACC-257 = tested on: UACC-257
SR = tested on: SR
ACHN = tested on: ACHN
OVCAR-4 = tested on: OVCAR-4
COLO 205 = tested on: COLO 205
M14 = tested on: M14
MOLT-4 = tested on: MOLT-4
HCC 2998 = tested on: HCC 2998
BT-549 = tested on: BT-549
U-251 = tested on: U-251
SNB-19 = tested on: SNB-19
Malme-3M = tested on: Malme-3M
SNB-75 = tested on: SNB-75
HL-60 = tested on: HL-60
OVCAR-8 = tested on: OVCAR-8
NCI-H522 = tested on: NCI-H522
A549 = tested on: A549
HCT-15 = tested on: HCT-15
DU-145 = tested on: DU-145

Compound | GI50 (A498) | GI50 (UACC-257) | GI50 (SR) | GI50 (ACHN) | GI50 (OVCAR-4) | GI50 (COLO 205) | GI50 (M14) | GI50 (MOLT-4) | GI50 (HCC 2998) | GI50 (BT-549) | GI50 (U-251) | GI50 (SNB-19) | GI50 (Malme-3M) | GI50 (SNB-75) | GI50 (HL-60) | GI50 (OVCAR-8) | GI50 (NCI-H522) | GI50 (A549) | GI50 (HCT-15) | GI50 (DU-145)
NCCCc1c(-c2ccccc2)[nH]c(N)nc1=O | > 100 µM (inactive) | > 100 µM (inactive) | > 100 µM (inactive) | > 100 µM (inactive) | > 100 µM (inactive) | > 100 µM (inactive) | > 100 µM (inactive) | > 100 µM (inactive) | > 100 µM (inactive) | > 100 µM (inactive) | > 100 µM (inactive) | > 100 µM (inactive) | > 100 µM (inactive) | > 100 µM (inactive) | > 100 µM (inactive) | > 100 µM (inactive) | > 100 µM (inactive) | > 100 µM (inactive) | > 100 µM | > 100 µM (inactive)
Cc1nn(C)c2nc3ccc(Cl)cc3c(-c3ccccc3)c12 | > 100 µM (inactive) | > 100 µM (inactive) | > 100 µM (inactive) | > 100 µM (inactive) | > 100 µM (inactive) | > 100 µM (inactive) | > 100 µM (inactive) | > 100 µM (inactive) | > 100 µM (inactive) | > 100 µM (inactive) | > 100 µM (inactive) | > 100 µM (inactive) | > 100 µM (inactive) | > 100 µM (inactive) | > 100 µM (inactive) | > 100 µM (inactive) | > 100 µM (inactive) | 79.6 µM (inactive) | > 100 µM | > 100 µM (inactive)
CC(C)(O)CO/N=C1\C(=C2\C(=O)Nc3ccccc32)Nc2ccccc21 | 0.187 µM (active) | 4.49 µM (inactive) | 0.594 µM (active) | 0.426 µM (active) | 2.94 µM (inactive) | 0.615 µM (active) | 0.474 µM (active) | 0.944 µM (active) | 0.991 µM (active) | 1.82 µM (inactive) | 2.38 µM (inactive) | 4.24 µM (inactive) | 4.3 µM (inactive) | 0.811 µM (active) | 0.74 µM (active) | 1.15 µM (inactive) | 1.87 µM (inactive) | 0.724 µM (active) | 0.324 µM | 0.476 µM (active)
CC1=NN(C(=O)c2ccncc2)C(=O)C1 | > 100 µM (inactive) | > 100 µM (inactive) | > 100 µM (inactive) | > 100 µM (inactive) | > 100 µM (inactive) | > 100 µM (inactive) | > 100 µM (inactive) | 89.9 µM (inactive) | > 100 µM (inactive) | > 100 µM (inactive) | > 100 µM (inactive) | > 100 µM (inactive) | > 100 µM (inactive) | > 100 µM (inactive) | > 100 µM (inactive) | > 100 µM (inactive) | > 100 µM (inactive) | > 100 µM (inactive) | > 100 µM | > 100 µM (inactive)

— ChEMBL document CHEMBL1201862, “PubChem BioAssay data set” (2004)
